Tests used:
A. fumigatus = assay: Protein kinase inhibitor (PKI) library screen with or without BRI; conditions: for growth, PKI (20 μM): PKI 20 μM alone; for growth, PKI (20 μM) + BRI (20 μM): PKI 20 μM together with BRI 20 μM; for activity at 20 µM: Aspergillus fumigatus, 48 h, read-out: growth, PKI (20 μM)
Procedure: A protein kinase inhibitors (PKI) library was also screened in combination with BRI. In total, 58 PKI were analyzed. Briefly, 100 μL of liquid MM containing 2.5×10^3 conidia/mL of the A. fumigatus wild-type strain plus 10% alamar blue was inoculated with increasing concentration of PKI (5-80 μM) in the presence (or not) of BRI (20μM) and incubated 48 hours at 37° C. without shaking. […] Plates were incubated for 48 hours at 37° C. without shaking. All experiments containing alamar blue were, after 48 hours incubation, read spectrophotometically by fluorescence and analyzed as previously described. Experiments were repeated at least three times.
To assess the mechanism of action of BRI, a collection of 58 protein kinase inhibitors (PKI, at a concentration of 20 μM; Table 4) was screened for A. fumigatus growth and corresponding metabolic activity alone or together with 20 μM BRI (Table 4).

Aspergillus fumigatus = assay: In vitro susceptibility (MIC), macrobroth dilution; type: cell-based; conditions: A. fumigatus 10AF, drug alone

Compound	growth, PKI (20 μM) (A. fumigatus)	growth, PKI (20 μM) + BRI (20 μM) (A. fumigatus)	activity at 20 µM (A. fumigatus) [%]	MIC50 (Aspergillus fumigatus; lowest concentration causing 50% decrease in growth vs untreated control) [µg/mL]	MIC100 (Aspergillus fumigatus; lowest concentration without growth) [µg/mL]
Cc1nc(Nc2n[nH]c3c2CN(C(=O)N[C@H](CN(C)C)c2ccccc2)C3(C)C)c2sccc2n1 [PF + 3758309]	++ (++: growth ≥80% compared to no treatment)	++ (++: growth ≥80% compared to no treatment)	–	–	–
C[C@@]1(c2ncncc2F)NC(=O)c2cc(-c3cn[nH]c3)ccc21 [LY3177833]	++ (++: growth ≥80% compared to no treatment)	++ (++: growth ≥80% compared to no treatment)	–	–	–
O=c1ncn2nc(Sc3ccc(F)cc3F)ccc2c1-c1c(Cl)cccc1Cl [VX + 745]	++ (++: growth ≥80% compared to no treatment)	++ (++: growth ≥80% compared to no treatment)	–	–	–
CCN1C(=O)CNc2ncc(-c3ccc(-c4nc[nH]n4)nc3C)nc21 [CC + 115]	++ (++: growth ≥80% compared to no treatment)	++ (++: growth ≥80% compared to no treatment)	–	–	–
COc1ccc(-c2ccc3c(N4CCOC[C@@H]4C)nc(N4CCOC[C@@H]4C)nc3n2)cc1CO [AZD + 8055]	++ (++: growth ≥80% compared to no treatment)	++ (++: growth ≥80% compared to no treatment)	–	–	–
O=C1NC(=O)C(c2cnc3ccccn23)=C1c1cn2c3c(cc(F)cc13)CN(C(=O)N1CCCCC1)CC2 [LY2090314]	–	++ (++: growth ≥80% compared to no treatment)	> 80	–	–
Nc1ccc(-c2ccc3ncc4ccc(=O)n(-c5cccc(C(F)(F)F)c5)c4c3c2)cn1 [Torin 2]	++ (++: growth ≥80% compared to no treatment)	++ (++: growth ≥80% compared to no treatment)	–	–	–
CCc1nc(-c2cccc(C)c2)c(-c2ccnc(NC(=O)c3ccccc3)c2)s1 [TAK + 715]	++ (++: growth ≥80% compared to no treatment)	++ (++: growth ≥80% compared to no treatment)	–	–	–
O=C1Nc2ccc(I)cc2C1=Cc1cc(Br)c(O)c(Br)c1 [GW305074X]	++ (++: growth ≥80% compared to no treatment)	++ (++: growth ≥80% compared to no treatment)	–	–	–
Cn1cc(C2=C(c3cn(C4CCN(Cc5ccccn5)CC4)c4ccccc34)C(=O)NC2=O)c2ccccc21 [enzastaurin]	–	++ (++: growth ≥80% compared to no treatment)	> 80	–	–
LY + 2584702	++ (++: growth ≥80% compared to no treatment)	++ (++: growth ≥80% compared to no treatment)	–	–	–
CCc1cncnc1N1CCN(Cc2nc3ccc(C(F)(F)F)cc3[nH]2)CC1 [PF + 4708671]	++ (++: growth ≥80% compared to no treatment)	++ (++: growth ≥80% compared to no treatment)	–	–	–
O=C1NCCc2[nH]c(-c3ccncc3)cc21 [PHA + 767491]	++ (++: growth ≥80% compared to no treatment)	++ (++: growth ≥80% compared to no treatment)	–	–	–
NC(=O)c1ccc(-c2nc(-c3ccc4c(c3)OCCO4)c(-c3ccccn3)[nH]2)cc1 [D4476]	++ (++: growth ≥80% compared to no treatment)	++ (++: growth ≥80% compared to no treatment)	–	–	–
CCn1c(=O)c(-c2ccc(-c3cncs3)cc2Cl)cc2cnc(Nc3ccc(N4CCN(C)CC4)cc3)nc21 [FRAX597]	++ (++: growth ≥80% compared to no treatment)	++ (++: growth ≥80% compared to no treatment)	–	–	–
CC(C)COC(=O)c1ccc2c(c1)/C(=C/Nc1ccc(S(N)(=O)=O)cc1)C(=O)N2 [GW416981X]	++ (++: growth ≥80% compared to no treatment)	++ (++: growth ≥80% compared to no treatment)	–	–	–
CNC(=O)c1cccc(-c2ccc3c(N4CCOC[C@@H]4C)nc(N4CCOC[C@@H]4C)nc3n2)c1 [vistusertib]	–	++ (++: growth ≥80% compared to no treatment)	> 80	–	–
Cn1cnc2c(F)c(Nc3ccc(Br)cc3Cl)c(C(=O)NOCCO)cc21 [selumetinib]	–	++ (++: growth ≥80% compared to no treatment)	> 80	–	–
MK + 8353	++ (++: growth ≥80% compared to no treatment)	++ (++: growth ≥80% compared to no treatment)	–	–	–
SR + 3677	++ (++: growth ≥80% compared to no treatment)	++ (++: growth ≥80% compared to no treatment)	–	–	–
Cc1ccc(-c2csc3ncnc(SCCC(=O)O)c23)cc1 [TTP 22]	++ (++: growth ≥80% compared to no treatment)	++ (++: growth ≥80% compared to no treatment)	–	–	–
NS(=O)(=O)c1ccc(N/N=C2\C(=O)Nc3ccc(C(=O)NCCCn4ccnc4)cc32)cc1 [GW290597X]	++ (++: growth ≥80% compared to no treatment)	++ (++: growth ≥80% compared to no treatment)	–	–	–
COc1cc2c(Nc3cccc(NC(=O)c4ccccc4)c3)ncnc2cc1OCCCN1CCOCC1 [GSK223810A]	–	++ (++: growth ≥80% compared to no treatment)	> 80	–	–

Compound	growth, PKI (20 μM) (A. fumigatus)	growth, PKI (20 μM) + BRI (20 μM) (A. fumigatus)	activity at 20 µM (A. fumigatus) [%]	MIC50 (Aspergillus fumigatus; lowest concentration causing 50% decrease in growth vs untreated control) [µg/mL]	MIC100 (Aspergillus fumigatus; lowest concentration without growth) [µg/mL]
COc1cc(F)c(F)c(Nc2ccc(I)cc2F)c1NS(=O)(=O)C1(C[C@H](O)CO)CC1 [refametinib]	–	++ (++: growth ≥80% compared to no treatment)	> 80	–	–
Nc1nc(=O)[nH]cc1F [Flucytosine (FLCY)]	–	–	–	>64	>64
COc1ccc2[nH]c3c4[nH]c5ccc(OC)cc5c4c4c(c3c2c1)C(=O)NC4=O [GW296115X]	++ (++: growth ≥80% compared to no treatment)	++ (++: growth ≥80% compared to no treatment)	–	–	–
Nc1ncnc2c1c(I)cn2[C@@H]1O[C@H](CO)[C@@H](O)[C@H]1O [5 + iodo tubercidin]	+ (+: growth ≤60% compared to no treatment)	++ (++: growth ≥80% compared to no treatment)	–	–	–
C[S+]([O-])c1ccc(-c2nc(-c3ccc(F)cc3)c(-c3ccncc3)[nH]2)cc1 (stereo not drawn) [SB + 203580]	++ (++: growth ≥80% compared to no treatment)	++ (++: growth ≥80% compared to no treatment)	–	–	–
O=C(NCCCNc1nc(Nc2cccc(NC(=O)N3CCCC3)c2)ncc1I)c1cccs1 [BX + 795]	++ (++: growth ≥80% compared to no treatment)	++ (++: growth ≥80% compared to no treatment)	–	–	–
CC1(N)CCN(c2cccnc2NC(=O)c2nc(-c3ncccc3C(F)(F)F)cnc2N)CC1 [darovasertib]	–	++ (++: growth ≥80% compared to no treatment)	> 80	–	–
CNC(=O)c1cc(Oc2ccc(NC(=O)Nc3ccc(Cl)c(C(F)(F)F)c3)cc2)ccn1 [Sorafenib]	–	++ (++: growth ≥80% compared to no treatment)	> 80	–	–
PF + 670462	++ (++: growth ≥80% compared to no treatment)	++ (++: growth ≥80% compared to no treatment)	–	–	–
CCOc1cc(N2CCC(O)CC2)ccc1Nc1ncc2c(n1)N(C)c1ccccc1C(=O)N2C [XMD8 + 92]	++ (++: growth ≥80% compared to no treatment)	++ (++: growth ≥80% compared to no treatment)	–	–	–
NS(=O)(=O)c1ccc(N/N=C2\C(=O)Nc3ccc(C(=O)NCCc4c[nH]cn4)cc32)cc1 [GW300660X]	++ (++: growth ≥80% compared to no treatment)	++ (++: growth ≥80% compared to no treatment)	–	–	–
N#Cc1ccc2[nH]c(O)c(-c3ccc(CN4CCOCC4)cn3)c2c1 [AZD1080]	–	++ (++: growth ≥80% compared to no treatment)	> 80	–	–
CC(C)(C)Cn1c(N)nc2ccc(-c3[nH]c(C(C)(C)C)nc3-c3ccc(F)cc3)nc21 [ralimetinib]	–	++ (++: growth ≥80% compared to no treatment)	> 80	–	–
Cc1cnc(-c2cnc(NCCNc3ccc(C#N)cn3)nc2-c2ccc(Cl)cc2Cl)[nH]1 [CHIR + 99021]	++ (++: growth ≥80% compared to no treatment)	++ (++: growth ≥80% compared to no treatment)	–	–	–
O=C(O)c1ccc2c(c1)nc(Nc1cccc(Cl)c1)c1cnccc12 [CX + 4945]	++ (++: growth ≥80% compared to no treatment)	++ (++: growth ≥80% compared to no treatment)	–	–	–
Clc1ccc(C2(c3ccc(-c4cn[nH]c4)cc3)CCNCC2)cc1 [AT7867]	++ (++: growth ≥80% compared to no treatment)	++ (++: growth ≥80% compared to no treatment)	–	–	–
CNc1ncc2cc(-c3ccc(-c4cccc(C)n4)cc3Cl)c(=O)n(C[C@H]3OC[C@H](N)CO3)c2n1 [G5555]	–	++ (++: growth ≥80% compared to no treatment)	> 80	–	–
Cn1cc(C2=C(c3ccc(Cl)cc3Cl)C(=O)NC2=O)c2ccccc21 [SB 216763]	–	++ (++: growth ≥80% compared to no treatment)	> 80	–	–
Fc1ccc(-c2nn3ccccc3c2-c2ccncc2)cc1 [GW434756X]	++ (++: growth ≥80% compared to no treatment)	++ (++: growth ≥80% compared to no treatment)	–	–	–
NS(=O)(=O)c1ccc(N/N=C2\C(=O)Nc3ccc(C(=O)NCc4ccncc4)cc32)cc1 [GW300657X]	++ (++: growth ≥80% compared to no treatment)	++ (++: growth ≥80% compared to no treatment)	–	–	–
O=c1[nH]c(C2CCCN2)nc2c1oc1ccc(Cl)cc12 (stereo not drawn) [XL413]	++ (++: growth ≥80% compared to no treatment)	++ (++: growth ≥80% compared to no treatment)	–	–	–
O=C(Nc1ccc2[nH]nc(-c3ccncc3)c2c1)[C@@H]1CCN(CC(=O)N2CCN(c3ccc(-c4ncccn4)cc3)CC2)C1 [SCH772984]	–	++ (++: growth ≥80% compared to no treatment)	> 80	–	–
